Laboratory results published in patent publication EP4656642A1, “ESTROGEN RECEPTOR PROTEOLYSIS TARGETING CHIMERA COMPOUND AND USE THEREOF” (GAN & LEE PHARM CO., LTD, priority 2023, dated 2024).

Key:
Assay type in all cases: cell-based
ERα [1] = target: T1, ERα (Homo sapiens, UniProt P03372); assay: Degradation of ERα in T-47D cells (immunoblotting, 4 h); set-up: host or cells: T-47D
T1 sequence (P03372 1-595): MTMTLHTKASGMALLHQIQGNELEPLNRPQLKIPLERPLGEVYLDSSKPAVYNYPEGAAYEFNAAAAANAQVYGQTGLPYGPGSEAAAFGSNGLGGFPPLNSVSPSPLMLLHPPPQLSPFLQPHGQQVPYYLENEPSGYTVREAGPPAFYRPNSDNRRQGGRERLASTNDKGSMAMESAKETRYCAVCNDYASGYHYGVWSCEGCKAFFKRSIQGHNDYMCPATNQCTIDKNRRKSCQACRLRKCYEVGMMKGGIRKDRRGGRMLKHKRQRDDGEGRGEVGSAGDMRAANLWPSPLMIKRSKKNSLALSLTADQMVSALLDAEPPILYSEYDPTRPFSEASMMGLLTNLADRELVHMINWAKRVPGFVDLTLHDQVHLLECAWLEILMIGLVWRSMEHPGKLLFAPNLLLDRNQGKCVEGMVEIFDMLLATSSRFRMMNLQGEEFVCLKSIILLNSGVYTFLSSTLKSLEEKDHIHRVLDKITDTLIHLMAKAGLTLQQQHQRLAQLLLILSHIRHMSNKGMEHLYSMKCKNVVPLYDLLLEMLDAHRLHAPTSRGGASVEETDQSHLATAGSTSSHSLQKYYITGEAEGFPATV
How it was run: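 T-47D cells were treated with compound (final 0.15-1000 nM, DMSO) for 4 h at 37°C, 5% CO2. Cells were lysed in RIPA buffer with protease inhibitor, and ERα protein in the cleared lysate was measured by immunoblotting.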

MCF-7 cells = assay: Inhibition of cell proliferation of MCF-7 cells (CCK-8, 9 days); settings: treated for 9 days, CCK-8 kit (Table 6)
How it was run: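 MCF-7 cells seeded at 800 cells/well in DMEM with 10% FBS, exposed to a range of compound concentrations for 9 days at 37°C, 5% CO2. Viability read by CCK-8; IC50 derived for proliferation inhibition.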

ERα [2] = target: T1, ERα; assay: Degradation of ERα in MCF-7 cells (immunoblotting, 4 h)
How it was run: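 MCF-7 cells treated 4 h at 37°C with compounds at 0.15-1000nM final. ERα in lysates measured by immunoblot, with band grayscale normalized to an internal reference protein. Degradation rate calculated against DMSO-treated control.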

Degradation rate (%) of ERα in T-47D cells (ERα [1]; 1nM compound)	Degradation rate (%) of ERα in T-47D cells (ERα [1]; 10nM compound)	IC50 (MCF-7 cells)	Degradation rate (%) of ERα in MCF-7 cells (ERα [2]; 1nM compound)	Degradation rate (%) of ERα in MCF-7 cells (ERα [2]; 10nM compound)	SMILES
43%	80%	0.00682 µM	30%	71%	O=C1CCC(N2Cc3c(ccc4c3OCC43CCN(C4CCN(C5CCN(c6ccc(C7c8ccc(O)cc8CCC7c7ccccc7)cc6)CC5)CC4F)CC3)C2=O)C(=O)N1 (centres unmarked) [G13]
31%	27%	> 100 µM	8%	-13%	O=C1CCC(N2Cc3c(ccc4c3OCC43CCN(C(=O)CN4CCN(c5ccc([C@@H]6c7ccc(O)cc7CC[C@@H]6c6ccccc6)cc5)CC4)CC3)C2=O)C(=O)N1 (some centres unmarked) [H14]
-35%	-32%	4.17 µM	-6%	7%	O=C1CCC(N2Cc3cc4c(cc3C2=O)C2(CCN(CC3CCN(c5ccc([C@@H]6c7ccc(O)cc7CC[C@@H]6c6ccccc6)cc5)CC3)CC2)CO4)C(=O)N1 (some centres unmarked) [H6]
62%	85%	0.0182 µM	45%	66%	O=C1CCC(N2Cc3c(ccc4c3OCC43CCN(C4CC5CCC(C4)N5C(=O)C4CCN(c5ccc([C@@H]6c7ccc(O)cc7CC[C@@H]6c6ccccc6)cc5)CC4)CC3)C2=O)C(=O)N1 (some centres unmarked) [G10]
56%	83%	0.199 µM	28%	62%	CCN(C(=O)CN1CCC2(CC1)COc1c2ccc2c1CN(C1CCC(=O)NC1=O)C2=O)C1CC2(CCN(c3ccc([C@@H]4c5ccc(O)cc5CC[C@@H]4c4ccccc4)cc3)CC2)C1 (some centres unmarked) [H55]
39%	51%	6.84 µM	33%	64%	O=C1CCC(N2Cc3c(ccc4c3OCC43CCN(CC(=O)N4CCC5(CC4)CCN(c4ccc([C@@H]6c7ccc(O)cc7CC[C@@H]6c6ccccc6)cc4)C5)CC3)C2=O)C(=O)N1 (some centres unmarked) [A72]
35%	77%	0.0191 µM	11%	40%	O=C1CCC(N2C(=O)c3ccc4c(c3C2=O)OCC42CCN(C(=O)CN3CCC4(CC3)CCN(c3ccc([C@@H]5c6ccc(O)cc6CC[C@@H]5c5ccccc5)cc3)CC4)CC2)C(=O)N1 (some centres unmarked) [A68]
42%	38%	4.36 µM	46%	45%	C[C@@H]1Cc2cc(O)ccc2C(c2c(F)cc(N3CCC(N4CCC(C(=O)N5CCC6(CC5)COc5c6ccc6c5CN(C5CCC(=O)NC5=O)C6=O)CC4)CC3)cc2F)N1CC(F)F (some centres unmarked) [F9]
37%	67%	303 µM	21%	41%	O=C1CCC(N2Cc3c(ccc4c3OCC43CCN(c4ccc(C(=O)N5CCN(c6ccc([C@@H]7c8ccc(O)cc8CC[C@@H]7c7ccccc7)cc6)CC5)cn4)CC3)C2=O)C(=O)N1 (some centres unmarked) [J2]
52%	82%	4.37 µM	40%	75%	C[C@@H]1Cc2c(ccc3[nH]ncc23)C(c2ccc(N3CCC4(CCN(CC(=O)N5CCC6(CC5)COc5c6ccc6c5CN(C5CCC(=O)NC5=O)C6=O)C4)CC3)cn2)N1CC(F)(F)F (some centres unmarked) [J11]
